This is an account of results in PMC10818546, “CYP1-Activation and Anticancer Properties of Synthetic Methoxylated Resveratrol Analogues” (Molecules, 2024).

A value given as a limit tells only on which side of the number the result lay.

The test system of one series is MDA231. In words: MTT cytotoxicity assay, MDA231 cells. In kind it is cell-based. As to conditions: Homo sapiens, MDA-MB-231; triple negative breast tumour cell line. On the procedure: DMU212 was also evaluated for cytotoxic activity in the aggressive, triple negative breast tumour cell line MDA231. This cell line has been reported to only weakly express CYP1A1 but constitutively express CYP1B1 [33]. […] However further studies would be required to confirm this statement.
MDA231 breast cancer cell line represents an aggressive tumour type. Treatment of this ER-negative and Ah receptor-positive cell line with TCDD has been reported to only weakly induce CYP1A1 mRNA expression but enhance the constitutive CYP1B1 expression. Other researchers have reported the ratio of active CYP1A1/CYP1B1 protein as 16/84 ratio in MDA231 [32].
A standard MTT (3-[4,5-dimethylthiazol-2-yl]-2,5-diphenyl tetrazolium bromide) cell viability assay was employed to evaluate the cytotoxicity of the stilbenes prepared. The MTT assay is a rapid quantitative spectrophotometric method for determining cell growth (viability) due to necrosis or apoptosis in monolayer-cultured cell lines in response to external factors. […]
Then, 100 µL aliquots of test compounds were added within 30 min into the wells from a 100 mM stock solution in DMSO and serially diluted to give final concentrations of […], 0.01, 0.003, 0.001 and 0.0003 µM. […] All the plates were vortexed and the absorbance at 540 nm was determined using a SpectraMax M5 plate reader (Molecular Devices, Wokingham, UK). […]

The subject of another series is MCF10A. In words: MTT cytotoxicity assay, MCF10A non-tumour control cells. In kind it is cell-based. As to conditions: Homo sapiens, MCF-10A, 96 h, read-out: IC50 MCF10A. On the procedure:
(§1) The antiproliferative activity of the resveratrol analogues was investigated using a human breast cell line panel, which has been characterised for CYP1 expression in our laboratories. IC50 values for both cis- and trans-isomers were determined using a standard 3-[4,5-dimethylthiazol-2-yl]-2,5-diphenyl tetrazolium bromide (MTT) cell viability assay and are shown in Table 1 (trans-stilbene analogues) and Table 2 (cis-stilbene analogues).
MCF10A cells are non-tumourigenic human mammary epithelial in origin which have been spontaneously immortalised without chemical intervention. CYP1 activity in MCF10A cells is negligible. […] Thus, MCF10A cell line is commonly used as a control in cytotoxicity assays.
(§2) A standard MTT (3-[4,5-dimethylthiazol-2-yl]-2,5-diphenyl tetrazolium bromide) cell viability assay was employed to evaluate the cytotoxicity of the stilbenes prepared. The MTT assay is a rapid quantitative spectrophotometric method for determining cell growth (viability) due to necrosis or apoptosis in monolayer-cultured cell lines in response to external factors. It is widely employed to evaluate the cytotoxicity of potential medicinal agents.
(§3) MCF7 cells were grown in RPMI-1640 medium with phenol red and 10% (v/v) heat-inactivated (heated to 56 °C for 45 min) foetal calf serum. MDA-468 cells were grown in RPMI-1640 medium with 10% (v/v) heat-inactivated foetal calf serum and L-glutamine (2 mM) without phenol red. MCF-10A cells were grown in Dulbecco’s modified Eagle’s medium/ Ham’s F-12 medium (1:1) with 5% (v/v) heat-inactivated foetal calf serum, epidermal growth factor (20 ng/mL), insulin ([…]) and hydrocortisone (500 ng/mL). Cells were maintained at 37 °C, 5% CO2/95% air with 100% humidity and passaged every 2–3 days using trypsin EDTA solution (0.25% w/v). Adhered cells at sub confluence were harvested for experimental use.
(§4) Aliquots of cell suspensions (100 µL at 2 × 10^3 cells per ml) were dispensed into sterile 96-well microtiter flat-bottomed plates. For the MDA468 and MCF10A cell lines, the plates were incubated at 37 °C, 5% CO2/95% air with 100% humidity for 24 h prior to the addition of test compounds. For MCF7 cells, after allowing approximately 4 h for cells to adhere, 100 µL of medium containing TCDD (from 100 mM stock in DMSO) or medium with 0.2% (v/v) DMSO was added to give a final concentration of 10 nM TCDD and 0.1% (v/v) DMSO. After 24 h, the medium was aspirated and replaced with fresh medium (100 µL) before the addition of test compounds.
(§5) Then, 100 µL aliquots of test compounds were added within 30 min into the wells from a 100 mM stock solution in DMSO and serially diluted to give final concentrations of […], 0.01, 0.003, 0.001 and 0.0003 µM. […] The cells were allowed to grow for 96 h at 5% CO2, 37 °C, to give 80–90% confluence in the control wells, after which 50 µL of 2 mg/mL MTT (final concentration 0.4 mg/mL) in sterile phosphate buffer was added to each well and the plates were further incubated for 2 h. All medium was aspirated and the formazan precipitate generated by viable cells was solubilised by 150 µL of DMSO. All the plates were vortexed and the absorbance at 540 nm was determined using a SpectraMax M5 plate reader (Molecular Devices, Wokingham, UK).
(§6) Results were expressed as a percentage of the control value versus the negative logarithm of the molar drug concentration range using GraphPad Prism (Version 5.00). Relative toxicities of each compound within each cell line were expressed as 50% of growth inhibition (IC50). All determinations were carried out in quadruplicate.

The subject of series [1] is CYP1 enzymes (CYP1A1, CYP1A2, CYP1B1). Nature of the series: Incubation with human CYP1 Supersomes, HPLC analysis. Type of series: in vitro ADME. The following applies: NADPH, 37 °C, 20 min. On the procedure: The CYPs isozyme panel used in this study were prepared from transformed insect cells expressing human CYPs (CYP1A1, CYP1A2 or CYP1B1) with co-expression of human NADPH reductase (Supersomes^TM). […] The general procedure was as follows: DMU212 was separately incubated with CYP1A1, CYP1A2, CYP1B1, CYP3A4 and non-CYP-expressing Supersomes^TM in the presence of phosphate buffer and NADPH at 37 °C. Samples were taken at regular intervals of 5 min over a 20 min period, and the enzymatic reaction in the sample was terminated immediately. Following centrifugation, the supernatants were removed and analysed by HPLC.
After 10 min of analysis, a linear gradient was initiated with the acetonitrile content rising to 70% over 5 min and with the 50 mM ammonium acetate decreasing accordingly. An equilibration time of 6 min was allowed between each sample. Analysis was conducted with a Jasco (Jasco UK limited) analytical system consisting of an AS841 autosampler, PU980 pump and LG low-pressure tertiary mixing valve, FP1500 fluorescence detector (JASCO UK Ltd., Heckmondwike, UK), column heater/ chiller (Jones Chromatography), and DG440 in-line degasser (Phenomenex, UK). Analytical data were collected using Borwin HPLC software (version 1.5), For the detection of DMU215, an in-line photoreactivity cell was used (Beam Boost^TM, Advanced Separations Technology Incorporated).

The subject of the next series is MCF7 (TCDD). In words: MTT cytotoxicity assay, TCDD-induced MCF7 cells. In kind it is cell-based, human. The following applies: Homo sapiens, MCF7, read-out: IC50 MCF7 (TCDD). On the procedure: as §1
(§7) MCF7 cells are both ER positive and Ah receptor positive and have been well documented for their CYP1 expression, and it is known that treatment with TCDD elevates CYP1A1 and CYP1B1 expression. The cells were treated with DMSO (0.1%) for 24 h for constitutive expression, whereas for inducible CYP1 expression, the cells were treated with TCDD (10 nM) for 24 h.
as §2, §3, §4, §5, §6
For orientation: Formazan colour is commonly taken as a measure of viable cells.

Another series has as its system MCF7. In words: MTT cytotoxicity assay, MCF7 cells (uninduced). In kind it is cell-based, human. The following applies: Homo sapiens, MCF7, 96 h, read-out: IC50 MCF7. On the procedure: as §1, §7, §2, §3, §4, §5, §6
For series [2] the following is noted: mouse, 0.2% (w/w) of the diet for 14 weeks; cited from earlier work.
The next series has as its system MDA468. Nature of the series: MTT cytotoxicity assay, MDA468 cells. Type of series: cell-based, human. The following applies: for TS = tumour selectivity = IC50 MCF10A/IC50 MDA468: ratio of IC50 values. On the procedure:
as §1
MDA468 cells represent an aggressive multi-drug-resistant tumour type and are ER negative but are aryl hydrocarbon (Ah) receptor positive in the presence of TCDD [46].
as §2, §3, §4, §5, §6

In general, IC50 refers to the concentration that gives 50% inhibition. In the case of `COc1ccc(/C=C/c2cc(OC)c(OC)c(OC)c2)cc1` [DMU212, (E)-4,3′,4′,5′-tetramethoxystilbene], the IC50 with MDA231 is above 100000 nM; in the series on MCF10A it was 4300 nM; in the series with MCF7 (TCDD) it was 120 nM; in the series on MCF7, 2600 nM; in the series on MDA468 (Homo sapiens, 96 h, read-out: IC50 MDA468) it was 1 nM. The “substrate for CYP1 enzymes” value in series [1] is recorded as “substrate for CYP1 enzymes”. Moreover, in series [2], the hepatotoxicity result was “without any obvious signs of hepatoxicity”. Besides, the “steady state level in the liver” value in series [2] was “up to 0.7 nmol/g tissue”. Besides, the “TS = tumour selectivity = IC50 MCF10A/IC50 MDA468” value with MDA468 was “over 4000”; in the series on MDA468 (listed as 212), 4300.
